Consider five compounds from PMC8546889 (Acta Pharmaceutica Sinica. B, 2021).

Structures are written as SMILES. Like-named read-outs stand apart in the source and are kept apart here.

For data set [1] the following is noted: read-out: Cytotoxicity (CC50); cited from earlier work.
The subject of data set [2] is HT-29 cells. The data set is described as follows: Anti-necroptosis activity assay. Type of data set: cell-based, human. Particulars: for EC50: Homo sapiens, HT-29, read-out: Anti-necroptosis (EC50); for anti-necroptosis activity improvement compared with TAK-632: EC50 ratio versus TAK-632.
Data set [3] in a line: Cytotoxicity. The format is cell-based.
In data set [4] the target is T1, RIP1 (Homo sapiens, UniProt Q13546).
T1 sequence (Q13546 1-671): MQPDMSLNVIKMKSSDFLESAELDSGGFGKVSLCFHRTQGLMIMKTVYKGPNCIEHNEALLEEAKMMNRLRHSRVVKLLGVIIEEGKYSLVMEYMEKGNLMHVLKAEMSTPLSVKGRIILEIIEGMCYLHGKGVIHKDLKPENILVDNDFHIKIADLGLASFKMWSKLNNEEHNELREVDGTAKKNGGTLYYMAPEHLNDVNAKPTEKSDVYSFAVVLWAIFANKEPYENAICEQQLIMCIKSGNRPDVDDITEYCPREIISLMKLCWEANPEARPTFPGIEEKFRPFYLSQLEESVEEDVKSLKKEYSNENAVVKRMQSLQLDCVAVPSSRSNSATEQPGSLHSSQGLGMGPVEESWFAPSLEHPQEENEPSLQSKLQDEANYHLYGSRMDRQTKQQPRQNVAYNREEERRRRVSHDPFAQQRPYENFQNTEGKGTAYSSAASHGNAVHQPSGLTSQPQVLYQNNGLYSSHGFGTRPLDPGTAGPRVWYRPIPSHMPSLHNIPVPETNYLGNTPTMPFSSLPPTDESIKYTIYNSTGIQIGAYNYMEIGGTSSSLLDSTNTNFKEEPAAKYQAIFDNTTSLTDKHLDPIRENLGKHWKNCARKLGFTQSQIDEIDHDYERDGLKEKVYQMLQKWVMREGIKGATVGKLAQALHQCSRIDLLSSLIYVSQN
The data set is described as follows: KINOMEscan kinase binding assay, RIP1. Particulars: for RIP1 selectivity: RIP1 over RIP3 (Kd ratio).

Data set [5] addresses T2, RIP3 (Homo sapiens, UniProt Q9Y572). The data set is described as follows: KINOMEscan kinase binding assay, RIP3.
For data set [6], the system named is HT-29 cells. The data set is described as follows: TCZ-induced necroptosis in HT-29 cells. The format is cell-based, human. The settings on record: TCZ 24 h.
In data set [7] the test system is HT-29 cells. The data set is described as follows: Apoptosis model induced by TC or TS in HT-29 cells. The format is cell-based, human. The settings on record: different concentrations.
Data set [8] relates to phosphorylation of RIP1, RIP3, and MLKL. The data set is described as follows: Immunoblotting of necroptosis pathway phosphorylation in TSZ-induced HT-29 cells. Type of data set: cell-based, human. Particulars: 1 μmol/L.
Data set [9] concerns healthy mice. The data set is described as follows: Single-dose acute oral toxicity test. The format is in vivo.
Data set [10] relates to C57BL/6 J mice. The data set is described as follows: DSS-induced UC model. Type of data set: in vivo.
The nature of data set [11]: PK study in mice. The settings on record: male, ICR, mouse, plasma; for AUC: mice. The format is in vivo.
The test system of data set [12] is L929 cells. Briefly: TZ-induced necroptosis in L929 cells. Particulars: mTNF-α and Z-VAD-FMK (TZ), 9 h.
In data set [13] the target is T3, RIP1-RIP3 necrosome (Homo sapiens, UniProt Q13546).
T3 sequence (Q13546 1-671): T1 sequence (Q13546 1-671)
Briefly: Immunoprecipitation of RIP1-RIP3 necrosome. Particulars: HT-29 cells, 1 μmol/L, 6 h.

Data set [14] addresses T1, RIP1. The data set is described as follows: Drug affinity responsive target stability assay. Particulars: 50 μmol/L, HT-29 cell lysates, 0.1% Pronase 30 min.
Data set [15] concerns the target T2, RIP3. Briefly: Drug affinity responsive target stability assay. Particulars: 50 μmol/L, HT-29 cell lysates, 0.1% Pronase 30 min.
The test system of data set [16] is C57BL/6 J mice. Briefly: TNF-α-induced systemic inflammatory response syndrome. Particulars: for survival rate of SIRS mice: over 60 h.

T2 sequence (Q9Y572 whole entry): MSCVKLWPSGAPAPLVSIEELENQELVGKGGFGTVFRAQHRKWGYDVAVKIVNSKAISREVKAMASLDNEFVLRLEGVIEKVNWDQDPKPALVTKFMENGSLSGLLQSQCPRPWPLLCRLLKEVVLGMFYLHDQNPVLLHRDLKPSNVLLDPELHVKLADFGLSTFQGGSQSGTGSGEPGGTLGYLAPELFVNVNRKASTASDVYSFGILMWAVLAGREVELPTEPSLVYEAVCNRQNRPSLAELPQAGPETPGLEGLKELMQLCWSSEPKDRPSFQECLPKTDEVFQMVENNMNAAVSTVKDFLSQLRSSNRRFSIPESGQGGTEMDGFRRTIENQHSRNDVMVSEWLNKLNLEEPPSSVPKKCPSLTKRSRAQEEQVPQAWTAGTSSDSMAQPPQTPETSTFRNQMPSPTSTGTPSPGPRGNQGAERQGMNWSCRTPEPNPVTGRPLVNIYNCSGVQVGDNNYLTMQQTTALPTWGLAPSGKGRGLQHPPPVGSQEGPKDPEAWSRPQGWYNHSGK

On to `N#Cc1c(Oc2ccc(F)c(NC(=O)Cc3cccc(C(F)(F)F)c3)c2)ccc2nc(NC(=O)C3CC3)sc12` [Compound 5, N-(7-Cyano-6-(4-fluoro-3-(2-(3-(trifluoromethyl)phenyl)acetamido)phenoxy)benzo[d]thiazol-2-yl)cyclopropanecarboxamide], for which the CC50 in data set [1] was more than 50000 nM.
For the compound `O=C(Cc1cccc(C(F)(F)F)c1)Nc1cc(Oc2ccc3nc(NC(=O)C4CC4)sc3c2[N+](=O)[O-])ccc1F` [Compound 9], in data set [2], the EC50 is 480 ± 10 nM. In [3], the half-maximal cytotoxic concentration (CC50) is more than 50000 nM. In addition, in [4], binding was put at a Kd of 710 nM and the RIP1 selectivity turned out to be 0.37. For the same compound, the Kd in data set [5] amounted to 260 nM.
Turning to `CC(=O)c1c(Oc2ccc(F)c(NC(=O)Cc3cccc(C(F)(F)F)c3)c2)ccc2nc(NC(=O)C3CC3)sc12` [Compound 10], in data set [2], the “anti-necroptosis activity improvement compared with TAK-632” value was “more than 10 fold” and the EC50 is 130 ± 60 nM. Also, the CC50 in [3] is more than 50000 nM. In addition, in data set [4], the affinity, expressed as Kd, was 880 nM and the RIP1 selectivity is recorded as 0.37. In [5], this compound showed a Kd of 330 nM.
As to `N#Cc1cc(Oc2ccc(F)c(NC(=O)Cc3cccc(C(F)(F)F)c3)c2)cc2sc(NC(=O)C3CC3)nc12` [Compound 15], the EC50 in [2] is more than 10000 nM. The anti-necroptosis activity entry in data set [2] (at 10 μmol/L) is listed as “completely eliminated the activity”.
Consider `O=C(Cc1cccc(C(F)(F)F)c1)Nc1cc(Oc2cc3sc(NC(=O)C4CC4)nc3cc2F)ccc1F` [Compound 25, N-(5-Fluoro-6-(4-fluoro-3-(2-(3-(trifluoromethyl)phenyl)acetamido)phenoxy)benzo[d]thiazol-2-yl)cyclopropanecarboxamide], for which the “anti-necroptosis potency improvement compared with SZM-594” value in [2] (EC50 ratio versus SZM-594) worked out at 21 fold. Moreover, in [2], the “anti-necroptosis activity improvement compared with TAK-632” value is recorded as 180 fold and the 50% effective concentration (EC50) came to 8 ± 1 nM. In addition, the “inhibition of necroptosis induced by TSZ” value in data set [2] (HT-29 cells, TSZ 12 h) is reported as “dose-dependently inhibit necroptosis”. The cytotoxic concentration (CC50) in [3] was more than 50000 nM. The “activity toward RIP3” value in data set [5] (even at 5000 nmol/L) is on record as “no apparent activity”. For the same compound, the “inhibition of necroptosis induced by TCZ” value in [6] was “dose-dependently inhibit necroptosis”. The “protective effects in the apoptosis model” value in data set [7] is reported as “did not show any protective effects”. In addition, the “downstream phosphorylation of MLKL” value in data set [8] is “completely inhibited”. Besides, the “phosphorylation of RIP1 and RIP3” value in data set [8] (within 6 h) is given as “completely inhibit”. Moreover, the “death after single oral dose” value in data set [9] (5 g/kg intragastric, 2 weeks, male and female mice) was “no death occurred”. For the same compound, the acute tolerability entry in [9] (5 g/kg, 14-day period) is recorded as “well tolerated”. Also, the colon length result in [10] (20 mg/kg, Day 13, P < 0.01 versus untreated colitis mice) is recorded as “longer colon length”. Besides, the “alleviation of body weight in UC mice” value in [10] (10 or 20 mg/kg intragastric, from Day 11) was “significantly dose-responsed speeded up”. In [10] (Western blot, TUNEL), the “phosphorylation of RIP1, RIP3 and MLKL in colon tissue” value is reported as “reducing the phosphorylation”. In data set [10] (colon tissue, qPCR), the “mRNA of inflammatory cytokines (Il-6 and Il-1β) and chemokine receptors (Ccr-2 and Ccr-5)” value is on record as “significantly reduced”. The “protein expressions of IL-6 and IL-1β in colon tissue” value in data set [10] (dose–response manner) is “inhibited the protein expressions”. Further, in data set [10] (intestinal permeability, versus DSS-disease mice), the “level of FITC-dextran in the serum” value is “significantly lower”. In data set [11] (iv, 1 mg/kg), this compound gave an MRT inf of 1.59 ± 0.43 h, a Vd of 1670 ± 856 L/kg, a clearance of 16.8 ± 4.8 mL/min/kg and a half-life of 1.67 ± 0.46 h. Also, in data set [11] (iv, 1 mg/kg, AUC0‒t, 1 mg/kg i.v.), the AUC came out at 1030 ± 350 ng·h/mL. Moreover, the AUC in data set [11] (iv, 1 mg/kg, AUC0‒∞, 1 mg/kg i.v.) is 1060 ± 354 ng·h/mL. In data set [11] (po, 10 mg/kg), the highest level (Cmax) was 381 ± 35 ng/mL, the MRT inf worked out at 2.74 ± 0.32 h, the Tmax is 0.67 ± 0.29 h and the bioavailability came to 9.69 ± 2.31%. In addition, the half-life in data set [11] (po, 10 mg/kg) was 1.18 ± 0.62 h. Besides, the AUC in [11] (po, 10 mg/kg, AUC0‒t, 10 mg/kg p.o.) worked out at 991 ± 218 ng·h/mL. In data set [11] (po, 10 mg/kg, AUC0‒∞, 10 mg/kg p.o.), the AUC came to 1030 ± 245 ng·h/mL. Besides, in [12], the “attenuation of necroptosis in L929 cells” value is reported as “dose-dependently attenuated necroptosis”. For the same compound, the TSZ-induced necrosome formation entry in data set [13] is on record as “completely blocked”. Besides, the “DARTS protection of RIP1 from protease digestion” value in data set [14] is “protected from protease digestion”. For the same compound, the “DARTS detection of RIP3 after protease digestion” value in data set [15] was “not detected”. Besides, in [16] (10 or 20 mg/kg intragastric, first 2–3 h after mTNF-α/Z-VAD-FMK), the “body temperature loss in SIRS mice” value was “protected mice from body temperature loss”. In addition, in [16] (single dose 10 mg/kg), the “survival rate of SIRS mice” value is on record as 60%. Further, in data set [16] (single dose 20 mg/kg), the “survival rate of SIRS mice” value was 100%.

As a reminder, the CC50 is the concentration at which the toxic effect on the cells reaches its halfway point. As a reminder, the EC50 is the concentration at which the effect is half-maximal. One may read the Kd as the free concentration of one partner at which half of the binding sites on the other are occupied at equilibrium, for simple one-to-one binding. A low value points to a tighter complex. For orientation: MRT inf means a mean duration of stay, worked out from the concentration-time curve. As a reminder, the Vd is the apparent volume that relates the amount in the body to the concentration in plasma or blood. By clearance is commonly meant the rate of elimination divided by the concentration. A word on the half-life: it is the time needed for the level to fall by half in the phase considered. Higher therefore signals slow decline. For orientation: AUC means the area under the concentration-time curve, a measure of exposure. The term Cmax denotes the maximum level reached in the sampled fluid or tissue. A word on the Tmax: it is the time from dosing to the highest level. In general, bioavailability refers to dose-corrected exposure relative to a reference, in per cent. Low readings indicate little systemic uptake, high ones much systemic uptake.
